{"source": "patent US9364405B2", "about": "“Tyrosinase inhibitors” (Avon Products, Inc., priority 2013, dated 2016)", "tested_on": "Mushroom tyrosinase", "assay": "Mushroom tyrosinase assay", "format": "biochemical", "conditions": "L-Tyrosine substrate, 25° C., 30 min", "protocol": "Mushroom tyrosinase and L-Tyrosine were obtained from Sigma-Aldrich, Inc. (St. Louis, Mo.). The enzyme activity was measured in buffer containing 100 mM phosphate buffer pH 6.8, 5% absolute ethanol, 2 micrograms/milliliter mushroom tyrosinase, and 0.2 mg/ml L-Tyrosine. The reaction (conversion of L-Tyrosine to DOPAchrome) was conducted in triplicates at 25° C. for 30 min, and absorbance was then measured at 492 nm. Kojic Acid was used as a positive control inhibitor in these assays. Percent change in tyrosinase activity relative to vehicle control was calculated.", "key": {"[1]": {"conditions": "test compound concentration 0.0010%"}}, "data": [{"smiles": "Cc1cc(C)cc(Nc2nc(-c3ccc(O)cc3O)cs2)c1", "note": "[AV4662]", "values": [{"measurement": "Tyrosinase Inhibition (percent change in tyrosinase activity compared to DMSO vehicle control)", "setting": "[1]", "value": "−46", "unit": "%"}]}, {"smiles": "CN1CCN(c2nc(-c3ccc(O)cc3O)cs2)CC1", "note": "[AV5370]", "values": [{"measurement": "Tyrosinase Inhibition (percent change in tyrosinase activity compared to DMSO vehicle control)", "setting": "[1]", "value": "−75", "unit": "%"}, {"measurement": "Tyrosinase Inhibition (percent change in tyrosinase activity compared to DMSO vehicle control)", "setting": "test compound concentration 0.0100%", "value": "−59", "unit": "%"}]}]}
